# Results: patent US5141627A, “Chelators whose affinity for calcium ion is increased by illumination” (The Regents of the University of California, priority 1989, dated 1992)
# Entries after “also recorded” stand apart in the source; their conditions may differ.
# Key:
# [1] = Chemical stability in aqueous base or acid; assay type: physicochemical
# From the text: Diazo-2 tetramethyl ester, Compound 3J, was saponified to the tetra-anion by dissolution in methanol (gentle heat), addition of an excess of aqueous 1M potassium hydroxide solution and keeping at room temperature several hours, preferably overnight. […] The purity of diazo-2 solutions can be determined by measuring the extent of absorbance change on complete photolysis (FIG. 1B) as contaminants contribute absorbance at 355 nm. Diazo-1, -3, and -4 esters were saponified analogously.
# [2] = Yield of high affinity chelator / low-affinity side product after photolysis; assay type: physicochemical; details: after photolysis
# Procedure: Because of the direct conjugation of the dialkylamine moiety with the diazoketone group, diazo-2 has a large absorbance in the 350-400 nm range, which shifts 50 nm to shorter wavelengths on binding Ca^2+ (FIG. 1A). The dissociation constant for Ca^2+ is relatively high, at 2.2 μM, due to the electron withdrawing ability of the carbonyl group. Photolysis occurs at 365 nm with a quantum yield of 0.030. The peak at […] in zero Ca^2+ decreases to near baseline giving a spectrum similar to that of unsubstituted BAPTA, although a small peak remains at 355 nm (FIG. 1B). […] The reaction of diazo-2 with dilute aqueous acid should give the same product whose absorbance spectrum indeed matched that of the residual peak at 355 nm after photolysis in low Ca^2+. […] Once the extinction coefficient for the hydroxyacetyl derivative was known, the amount of the side product arising from photolysis is calculated to be about 10%.
# [3] = Ca2+ affinity by UV spectra during titration of EGTA or HEEDTA buffers; assay type: binding; details: after photolysis; 0.25M ionic strength (0.2M KCl, 0.05M NaCl), 18° C.
# [4] = tested on: cells; experiment: Effect in cells of microinjected chelator on Ca2+ after photolysis; assay type: cell-based; details: microinjected into cells
# [5] = tested on: REF52 fibroblast cell; experiment: Intracellular free Ca2+ in REF52 fibroblasts on vasopressin stimulation and UV photolysis (fluo-3); assay type: cell-based, Fisher rat; details: for effect of UV photolysis of intracellular chelator on [Ca2+]i (in words): 1 s UV after 50 nM [arg8]-vasopressin
# From the text: The tetraacetoxymethyl esters of diazo-2 and diazo-3 were synthesized. The acetoxymethyl (AM) groups mask the negative charges on the carboxylate functions, so the AM ester of diazo-2 and diazo-3 can easily diffuse across the cell membrane, which is largely impermeable to ions. Once inside the cell, non-specific esterases in the cell hydrolytically cleave the AM esters and restore diazo-2 and diazo-3 to their tetracarboxylate forms, which being polyanions, are trapped within the cell. […] Prior to the start of data acquisition (t=0), the REF52 fibroblast cell was loaded with diazo-2 and fluo-3. […] Its fluorescence quantum yield is enhanced about 40-fold by Ca^2+ binding, which occurs with a Kd of 400 nM.
# Prior to the start of data acquisition, the REF52 fibroblast cell was loaded with fluo-3 and diazo-2 by incubation for 30 min at 25° C. DME medium containing 1 μM diazo-2/AM and 10 μM fluo-3/AM. Acquisition of fluo-3 fluorescence intensity images was begun at time 0. The fluorescence intensity data was converted to intracellular Ca^2+ concentrations using a calibration procedure previously described. The event markers correspond to 1) stimulating the cell with 50 nM [arg^8 ]-vasopressin,and 2) flashing the cell for 1 s with UV light.
# The experimental conditions were the same as in (A) except that the cell wa loaded with fluo-3 and diazo-3 (instead of diazo-2) by incubation for 90 min at 25° C. in DME medium containing 10 μm fluo-3/AM and […] diazo-3/AM. The event markers correspond to 1) stimulating the cell with 50 nM [arg^8 ]-vasopressin, and 2) flashing the cell for 1 s of UV light.
# For preliminary biological tests, Fisher rat embryo fibroblast of the REF52 cell line were cultured as described by J. P. Y. Kao, et al. (1989).
# For testing diazo-2, REF52 cells were incubated for 30 min at 25° C. in Dulbecco's modified Eagle's medium, buffered at pH 7.4 with 20 mM HEPES and containing 1 μM diazo-2/AM and 10 μM fluo-3/AM. For control experiments using diazo-3, the cells were incubated for 90 min at 25° C. in DMEM, buffered to pH 7.4 with 20 mM HEPES and containing 1 μM diazo-3/AM and […] fluo-3/AM. After loading, the cells were gently washed, transferred into Hanks' Balanced Salt Solution containing 0.2 mM sulfinpyrazone to inhibit non-specific organic anion transport (see Tsien, 1989), and mounted on a 25° C. microscope stage for experimentation.
# Flash photolysis of trapped cellular diazo-2 and the concomitant monitoring of intracellular free Ca^2+ concentration with fluo-3, a fluorescent Ca^2+ indicator, were performed using methodology and instrumentation described in A. Minta, et al (1989) and J. P. Y. Kao, et al. (1989). Briefly, output form a Xe arc lamp was passed through a monochromator to yield the 490 nm light used to probe the fluo-3 trapped intracellularly. The fluo-3 fluorescence images of cells were recorded using a SIT TV camera. Images were stored on a high-resolution monochrome laser disc recorder (Panasonic TQ-2028) for delayed processing. Photolyses were performed by briefly moving a chopper mirror to send broad-band UV from an XBO 75 W xenon arc lamp and UG-2 filter into the microscope instead of 490 nm fluo-3 excitation. The microscope objective (Nikon UV-CF, 40X) was chosen for its high UV transmission and numerical aperture (1.3). […] The same computer was used to analyze the fluorescence images acquired during the experiment.
# [6] = Covalent modification of lysine by photochemical intermediates (HPLC); details: pH 7.2
# Procedure: To study the extent to which biological substrates are covalently modified by reactive intermediates generated by the photolysis of the diazoketones,100 μM diazo-3 in the presence of 10 mM phosphate and either 100 mM KCl or 100 mM lysine.HCl, at pH 7.2 was photolyzed. The photolysates were analyzed by HPLC (Waters Associates, Inc., Milford, Mass.; C-18 column, Supelco, Inc., Bellefonte, Pa.), with 10 mM KH2 PO4 /K2 HPO4 buffer at pH 7.2 as eluting solvent. The absorbance of the eluate at 254 nm was monitored. Before being injected onto the column, concentrated stock solutions of either KCl or lysine.HCl were added to the photolysate to insure that the electrolyte composition of the injected samples were identical. Thus, 10 μL of 1M KCl were added to 100 μL of the samples of diazo-3 photolyzed in lysine.HCl, while 10 μL of 1M lysine.HCl were added to 100 μL of the sample of diazo-3 photolyzed in KCl.
"stability on concentration to a solid (in words) ([1]; from dilute aqueous base, concentrated to a solid)","stability in dilute aqueous base (in words) ([1]; methanol/aqueous KOH, room temperature, several hours to overnight)",stability in strong aqueous base or acid (in words) ([1]; pH>13 or pH<4),Photolysis yield (yield of high affinity Ca2+ chelator after photolysis) [2],Kd [3] [nM],Structure (SMILES),sequestering Ca2+ after photolysis (in words) [4],effect of UV photolysis of intracellular chelator on [Ca2+]i (in words) [5],"[Ca2+]i immediately after photolysis ([5]; after 1 s UV, cell stimulated with 50 nM [arg8]-vasopressin, loaded with diazo-2/AM)","covalently modified lysines ([6]; 100 μM diazo-3, 200 mM lysine.HCl (so in the source)) [lysines in 10^5]",frequency of covalent lysine modification ([6]; 100 μM diazo-3 photolyzed in 100 mM lysine.HCl),"absorbance under new (lysine-modified) peak ([6]; 100 μM diazo-3 photolyzed in 100 mM lysine.HCl, % of total absorbance)","modified lysine produced ([6]; 100 μM diazo-3 photolyzed in 100 mM lysine.HCl, calculated)"
decomposes and becomes light-insensitive,stable,unstable,90,150,"Cc1ccc(N(CC(=O)O)CC(=O)O)c(OCCOc2cc(C(=O)C=[N+]=[N-])ccc2N(CC(=O)O)CC(=O)O)c1 [diazo-2, 1-(2-bis(carboxymethyl)amino-5-methyl) phenoxy-2-(2-bis(carboxymethyl)amino-5-(diazoacetyl)phenoxy) ethane]",effective in sequestering Ca^2+ after photolysis,dropped precipitously,about 50 nM,,,,
,,,0,,"COc1cc(C(=O)C=[N+]=[N-])ccc1N(CC(=O)O)CC(=O)O [diazo-3, 2-methoxy-4-(diazoacetyl)aniline-N, N-diacetic acid]",,did not have any effect on the intracellular Ca^2+ concentration; also recorded: no detectable effect on Ca^2+ hemeostasis,,6,about 6×10^-5,about 6%,about 6 μM
